Laboratory results as given in publication PMC12169615, “Fluorescent 4‑Nitrobenzo-2-oxa-1,3-diazole-Coupled Bile Acids as Probe Substrates of Hepatic and Intestinal Bile Acid Transporters of the Solute Carrier Families SLC10 and SLCO” (Journal of Medicinal Chemistry, 2025).
Several values for one entry are separate records, joined by “and”; a condition that tells them apart may be missing. Identical values can stand only once.

How the values were obtained:
HEK293 cells = assay: Fluorescence microscopy screening: accumulation independent from control conditions; format: cell-based, human; settings: 50 μM, 10 min, all HEK293 cell lines, with and without sodium
Description: (§1) Then, all cell lines were cultivated in chamber slides and were grown to confluence to screen for carrier-mediated cellular accumulation of the synthesized NBD-BA. Incubation with the NBD-BA was done in the presence of sodium (+Na^+) as well as in the absence of sodium (-Na^+, negative control) for all SLC10 carriers, namely NTCP, ASBT, mNtcp, mAsbt, and SOAT. For OATP1B1 and OATP1B3, nontransfected HEK293 cells were used as negative control.
(§2) 4 Screening of the cellular uptake of 3-NBD-BA in HEK293 (HEK) cells stably expressing the human carriers NTCP, ASBT, SOAT, OATP1B1, and OATP1B3, or the mouse carriers mNtcp and mAsbt. For the SLC10 carriers, sodium-free conditions (-Na^+) were used as control. For the OATPs, experiments in non-carrier-expressing HEK293 cells (HEK) served as control. All cell lines were incubated for 10 min with the indicated 3-NBD-BA at 50 μM concentration. Then, cells were washed with PBS and subjected to fluorescence microscopy. Identical microscope settings were used for all images. Scale bar: 75 μm.

[1] = Excitation-emission spectra of the 3-NBD-BA; format: physicochemical; settings: NaCl-transport buffer, 1 pM compound concentration
Description: After the synthesis of this set of unconjugated as well as T- and G-conjugated 3β- and 3α-NBD-BA derivatives, namely 3β-NBD-CA (6a), 3β-NBD-CDCA (6b), 3β-NBD-DCA (6c), 3α-NBD-CA (6d), 3β-NBD-TCA (14a), 3β-NBD-TCDCA (14b), 3α-NBD-TCA (14d), 3β-NBD-GCA (16a), and 3α-NBD-GCA (16d) comprehensive transport studies were conducted with all fluorescent BA listed in Figure . Prior to the transport studies, the excitation and emission spectra of all fluorescent BA derivatives were determined to obtain the optimal emission and excitation wavelengths for subsequent fluorescent measurements at the fluorescence microscope and the fluorescent reader (Figure ). The excitation maxima (ExPeak) were at 468–470 nm and the emission maxima (EmPeak) at 538–540 nm for all fluorescent NBD-BA.
2 Excitation–emission-spectra of the 3-NBD-BA measured in NaCl-transport buffer at 1 pM compound concentration. The excitation (dotted line, ExPeak) and emission (solid line, EmPeak) peak wavelengths (in nm) are indicated for each compound. RFU, relative fluorescence units. […]

mouse mAsbt [2] = biological target: T1, mouse mAsbt (Mus musculus, UniProt P70172); assay: Fluorescence microscopy screening of cellular uptake of 3-NBD-BA; format: cell-based; parameters: stably transfected with the full open reading frames of human NTCP, ASBT, SOAT, OATP1B1, and OATP1B3 as well as mouse mNtcp and mAsbt; expressed in transfected cells; settings: 50 μM, 10 min, +Na+ vs -Na+
T1 sequence (P70172 1-348): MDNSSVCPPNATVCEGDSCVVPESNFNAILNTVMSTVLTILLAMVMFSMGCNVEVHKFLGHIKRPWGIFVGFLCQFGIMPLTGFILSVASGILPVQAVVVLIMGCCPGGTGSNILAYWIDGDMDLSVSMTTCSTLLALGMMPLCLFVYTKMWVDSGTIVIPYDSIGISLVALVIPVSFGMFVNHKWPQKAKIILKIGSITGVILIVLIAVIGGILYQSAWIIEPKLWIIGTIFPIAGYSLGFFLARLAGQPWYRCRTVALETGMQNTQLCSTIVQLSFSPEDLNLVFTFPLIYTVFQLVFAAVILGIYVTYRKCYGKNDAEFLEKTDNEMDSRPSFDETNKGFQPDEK
Description: as §1, §2

human ASBT = biological target: T2, human ASBT (Homo sapiens, UniProt Q12908); assay: Transport kinetics of conjugated 3-NBD-BA (concentration-dependent uptake); format: cell-based; parameters: stably transfected with the full open reading frames of human NTCP, ASBT, SOAT, OATP1B1, and OATP1B3; expressed in transfected cells; settings: for Transport rates via ASBT across the entire concentration range: ASBT-HEK293, 10 min, +Na+ vs -Na+, not considered biologically meaningful
T2 sequence (Q12908 1-348): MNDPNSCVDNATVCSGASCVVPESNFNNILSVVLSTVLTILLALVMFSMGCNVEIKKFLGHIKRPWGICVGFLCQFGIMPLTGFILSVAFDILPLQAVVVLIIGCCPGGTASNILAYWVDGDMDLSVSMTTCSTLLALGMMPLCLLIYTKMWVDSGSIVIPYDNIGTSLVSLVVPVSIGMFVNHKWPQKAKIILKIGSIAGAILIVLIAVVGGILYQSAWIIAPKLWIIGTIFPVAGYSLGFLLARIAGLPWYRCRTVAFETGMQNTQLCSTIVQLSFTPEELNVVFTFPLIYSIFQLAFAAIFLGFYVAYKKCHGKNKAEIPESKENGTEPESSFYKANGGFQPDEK
Description: (§3) In a first step, the time-dependent transport of all conjugated NBD-BA was analyzed. […] Based on these findings, an uptake phase of 10 min was selected as the most practical for subsequent kinetic transport measurements. […] In contrast, for ASBT, reliable carrier-specific concentration-dependent transport rates and K m values could only be determined for 3α-NBD-GCA (16d). The transport rates for 3β-NBD-TCA (14a), 3β-NBD-TCDCA (14b), 3β-NBD-GCA (16a), and 3α-NBD-TCA (14d) were at ≤ 2 across the entire concentration range and were therefore not considered biologically meaningful.
(§4) 7 ASBT and mAsbt transport kinetics for conjugated 3-NBD-BA. Concentration-dependent uptake of the indicated NBD-coupled BA was analyzed in HEK293 cells stably expressing human ASBT or mouse mAsbt at increasing substrate concentrations. Control experiments were performed in the absence of sodium (-Na^+). Uptake was analyzed for 10 min at 37 °C with transport buffer containing the indicated 3-NBD-BA. Afterward, the transport medium was removed, and each cell monolayer was washed and processed for fluorescence detection. Specific uptake was calculated by subtracting the nonspecific uptake in the absence of sodium (-Na^+, open symbols) from the uptake in the presence of sodium (+Na^+, closed symbols) and is shown by dotted lines. Values represent means ± SD of quadruplicate determinations. Michaelis Menten K m values were calculated by nonlinear regression analysis based on the specific uptake data. For ASBT, reliable specific uptake data could only be determined for 3α-NBD-GCA (16d).

mouse mAsbt [3] = biological target: T1, mouse mAsbt; assay: as above; format: cell-based; parameters: stably transfected with the full open reading frames of human NTCP, ASBT, SOAT, OATP1B1, and OATP1B3 as well as mouse mNtcp and mAsbt; expressed in transfected cells; settings: mAsbt-HEK293, 10 min uptake, 37 °C, specific (Na+-dependent) uptake
Description: as §3, §4

| Compound | Cellular NBD-fluorescence irrespective of carrier/control conditions (microscopy) (HEK293 cells) | Emission peak wavelength (EmPeak) [1] | Excitation peak wavelength (ExPeak) [1] | Cellular NBD-fluorescence, mAsbt-HEK293 (microscopy) (mouse mAsbt [2]) | Transport rates via ASBT across the entire concentration range (human ASBT) | K m mAsbt (mouse mAsbt [3]) | K m ASBT (human ASBT; ASBT-HEK293, 10 min uptake, 37 °C, specific (Na+-dependent) uptake) |
| --- | --- | --- | --- | --- | --- | --- | --- |
| 7α-Hydroxy-3β-[(7-nitro-2,1,3-benzoxadiazol-4-yl)amino]-5β-cholan-24-oate [6b] | significant increase in cellular NBD-fluorescence, independent from the control conditions | 538 nm | 468 nm | – | – | – | – |
| 12α-Hydroxy-3β-[(7-nitro-2,1,3-benzoxadiazol-4-yl)amino]-5β-cholan-24-oate [6c] | significant increase in cellular NBD-fluorescence, independent from the control conditions | 538 nm | 468 nm | – | – | – | – |
| C[C@H](CCC(=O)O)[C@H]1CC[C@H]2[C@@H]3[C@H](O)C[C@@H]4C[C@@H](Nc5ccc([N+](=O)[O-])c6nonc56)CC[C@]4(C)[C@H]3C[C@H](O)[C@]12C [6a, 7α,12α-Dihydroxy-3β-[(7-nitro-2,1,3-benzoxadiazol-4-yl)amino]-5β-cholan-24-oate] | significant increase in cellular NBD-fluorescence, independent from the control conditions | 538 nm | 468 nm | – | – | – | – |
| C[C@H](CCC(=O)O)[C@H]1CC[C@H]2[C@@H]3[C@H](O)C[C@@H]4C[C@H](Nc5ccc([N+](=O)[O-])c6nonc56)CC[C@]4(C)[C@H]3C[C@H](O)[C@]12C [6d, 7α,12α-Dihydroxy-3α-[(7-nitro-2,1,3-benzoxadiazol-4-yl)amino]-5β-cholan-24-oate] | significant increase in cellular NBD-fluorescence, independent from the control conditions | 538 nm | 468 nm | – | – | – | – |
| C[C@H](CCC(=O)NCCS(=O)(=O)[O-])[C@H]1CC[C@H]2[C@@H]3[C@H](O)C[C@@H]4C[C@@H](Nc5ccc([N+](=O)[O-])c6nonc56)CC[C@]4(C)[C@H]3C[C@H](O)[C@]12C.[Na+] [14a] | – | 538 nm | 468 nm | significant increase in cellular NBD-fluorescence compared to the negative control | ≤ 2 | 20.0 µM and 20 µM | – |
| C[C@H](CCC(=O)NCCS(=O)(=O)[O-])[C@H]1CC[C@H]2[C@@H]3[C@H](O)C[C@@H]4C[C@H](Nc5ccc([N+](=O)[O-])c6nonc56)CC[C@]4(C)[C@H]3C[C@H](O)[C@]12C.[Na+] [14d] | – | 538 nm | 468 nm | significant increase in cellular NBD-fluorescence compared to the negative control | ≤ 2 | 11.1 µM | – |
| C[C@H](CCC(=O)NCC(=O)O)[C@H]1CC[C@H]2[C@@H]3[C@H](O)C[C@@H]4C[C@@H](Nc5ccc([N+](=O)[O-])c6nonc56)CC[C@]4(C)[C@H]3C[C@H](O)[C@]12C [16a] | – | 538 nm | 468 nm | significant increase in cellular NBD-fluorescence compared to the negative control | ≤ 2 | 3.5 µM | – |
| C[C@H](CCC(=O)NCC(=O)O)[C@H]1CC[C@H]2[C@@H]3[C@H](O)C[C@@H]4C[C@H](Nc5ccc([N+](=O)[O-])c6nonc56)CC[C@]4(C)[C@H]3C[C@H](O)[C@]12C [16d] | – | 538 nm | 468 nm | significant increase in cellular NBD-fluorescence compared to the negative control | – | 14.5 µM | 14.5 µM |
